According to ChEMBL document CHEMBL1152676, “Combretastatin-like chalcones as inhibitors of microtubule polymerization. Part 1: synthesis and biological evaluation of antivascular activity” (Bioorg Med Chem, 2009):
Activity calls are given as the source filed them. No cut-off for these calls is given here.

Experiments:
[1] = Displacement of [3H]colchicine from tubulin assessed as bound colchicine at […] incubated in dark for 2 hrs by scintillation spectroscopy
K562 [2] = assay: Cell cycle arrest in human K562 cells assessed as accumulation at G0/G1 phase at 20 nM after 24 hrs by propidium iodide staining-based flow cytometry; assay type: functional
[3] = Inhibition of tubulin assembly by Woods method
HUVEC = assay: Antivascular activity in HUVEC cells assessed as change in cell shape at 1 uM after 1 hr by fluorescent-labeled high molecular weight F-dextran permeability assay; assay type: functional, cell-based; details: Homo sapiens
[4] = Inhibition of tubulin polymerization assessed as appearance of twisted and shorter tubulin by electron microscopy
K562 [5] = assay: Cell cycle arrest in human K562 cells assessed as accumulation at G2/M phase at 20 nM after 24 hrs by propidium iodide staining-based flow cytometry; assay type: functional
K562 [6] = assay: Cell cycle arrest in human K562 cells assessed as accumulation at S phase at 20 nM after 24 hrs by propidium iodide staining-based flow cytometry; assay type: functional
Vero = assay: Binding affinity to tubulin in african green monkey Vero cells assessed as aberration of microtubule arrangement at 10 uM after 40 mins by immunohistochemistry; assay type: cell-based; details: Chlorocebus sabaeus
K562 [7] = assay: Antiproliferative activity against human K562 cells after 5 days by MTT assay; assay type: functional, cell-based; details: Homo sapiens, K562, 120 h
[8] = Inhibition of tubulin polymerization assessed as appearance of shorter and ring shaped tubulin by electron microscopy

Activity [1]	IC50 [3]	Activity [4]	IC50 (K562 [7])	Activity [8]	Compound	Activity (K562 [2])	Activity (HUVEC)	Activity (K562 [5])	Activity (K562 [6])	Activity (Vero)
9%	620 nM	Active			COc1ccc(/C=C/C(=O)c2cc(OC)c(OC)c(OC)c2)cc1O	12%	Active	76%	12%	
46%	12000 nM		200 nM		COc1cc(OC)c(/C=C/C(=O)c2cc(OC)c(OC)c(OC)c2)c(OC)c1	10%		72%	18%	Active
2%	10000 nM		12 nM		COc1ccc(OC)c(C(=O)/C(C)=C/c2ccc(N(C)C)cc2)c1	10%		82%	8%	Active
42%	18000 nM		300 nM		COc1ccc(/C=C/C(=O)c2ccc(OC)c(OC)c2)c(OC)c1	26%		47%	27%	Active
10%	13000 nM				COc1cc(C(=O)/C=C/c2ccc3c(c2)OCCO3)cc(OC)c1OC	27%		50%	23%	Active
6%	650 nM		2 nM		COc1ccc(/C=C(\C)C(=O)c2cc(OC)c(OC)c(OC)c2)cc1F	3%		88%	9%	Active

Second part, the compound before the results:

Compound	Activity [1]	IC50 [3]	Activity [4]	IC50 (K562 [7])	Activity [8]	Activity (K562 [2])	Activity (HUVEC)	Activity (K562 [5])	Activity (K562 [6])	Activity (Vero)
COc1ccc(C(=O)/C(C)=C/c2ccc(OC)c(OP(=O)(O)O)c2)cc1	12%						Active			
CO/C(=C\c1cc(F)c(OC)c(F)c1)C(=O)c1cc(OC)c(OC)c(OC)c1	41%	1700 nM		360 nM		30%	Active	55%	15%	
COc1ccc(/C=C(\C)C(=O)c2cc(OC)c(OC)c(OC)c2)cc1O	8%	460 nM			Active	10%	Active	83%	7%	Active
CO/C(=C\c1ccc(OC)c(O)c1)C(=O)c1cc(OC)c(OC)c(OC)c1	5%	510 nM		1.5 nM		4%	Active	84%	12%	Active
CO/C(=C\c1ccc(OC)c(F)c1)C(=O)c1cc(OC)c(OC)c(OC)c1	8%	470 nM		3.7 nM		41%	Active	46%	13%	
